Data reported in article PMC10121968, “Fosgonimeton, a Novel Positive Modulator of the HGF/MET System, Promotes Neurotrophic and Procognitive Effects in Models of Dementia” (Neurotherapeutics, 2022).
Non-standard residues stand in square brackets, D forms with d. Residues, ends and D or L forms follow the SMILES beside them. *: point of attachment. Hexanoyl = CCCCCC(=O)*; Ahx = NCCCCCC(=O)O

Legend:
[1] = test system: primary rat cortical neurons; experiment: Neuroprotection, Cell Titer-Glo cell viability assay; type: cell-based; conditions: for percentage of recovery of cell viability: 1 µM, 24 h
Protocol: A Cell Titer-Glo (CTG) Luminescent Cell Viability Assay (Promega, Cat #G7571, Madison, Wisconsin) was used to assess the neuroprotective potential of fosgo-AM. Brain cortices were dissected from P1–3 rat pups and homogenized in DMEM containing 10% FBS. The resulting suspension was then incubated with a DNase/papain/trypsin solution for 30 min at 37 °C, followed by incubation in a collagenase solution for 1 h. Cells were then seeded at 5000 cells/well in 384-well plates and maintained at 37 °C and 5% CO2 in Complete Neurobasal Medium supplemented with B27/GDNF/BDNF containing 10% FBS. One day later, cultures were switched to serum-free neurobasal medium supplemented with 2% B27 and maintained until neuronal maturity (35–40 DIV). Media were changed every 3 days, and fresh medium was applied 24 h before each experiment. Cells were then treated with fosgo-AM at 1 µM, 100 nM, 10 nM, or 1 nM in a 0.5% DMSO vehicle for 15 min, and subjected to several conditional insults, including 1-methyl-4-phenylpryidinium (MPP+; 500 µM), glutamate (25 µM), lipopolysaccharide (LPS; 1 µM), or hydrogen peroxide (H2O2; 1 µM) for 24 h. After 24 h, 25 µL CTG reagent was added to each well and the plate was incubated with shaking for 15 min. Luminescence measurements to assess relative levels of ATP were performed on an Envision plate reader (PerkinElmer, Waltham, Massachusetts). Data for the vehicle control were set to 100% cell viability, and data for each other group were averaged, normalized to vehicle control, and presented as mean ± SEM. Data were assessed for normality (Shapiro–Wilk) and homoscedasticity (Brown-Forsythe). Statistical analyses were performed using one-way ANOVA with Tukey’s Multiple Comparison test (Prism GraphPad, San Diego, California). A value of p < 0.05 was considered to represent a statistically significant difference.

[2] = test system: primary rat hippocampal neurons; experiment: Synaptogenesis assay (synaptobrevin-II staining); type: cell-based; conditions: 8 days, vs vehicle
Protocol: On day 0, rat hippocampal neurons from newborn pups were isolated and cultured in brain neuronal culture medium (neurobasal medium supplemented with 5% FBS, 2% B-27 supplement, and 0.003% gentamycin) at 37 °C under 5% CO2. At 1 day in vitro (DIV1), cells were transferred to a poly-D-lysine–coated 24-well plate at approximately 10,000 cells/well. Cells were then grown in […] of serum-free medium and treated with the following: 0.1% dimethyl sulfoxide (DMSO; vehicle), 10 nM dihydrotestosterone (positive control), 10 nM fosgo-AM, 1 nM fosgo-AM, 5 ng/ml HGF, or 5 ng/ml HGF + 1 nM fosgo-AM. All treatments contained a final concentration of 0.1% DMSO. For the neurite outgrowth assay, treatment media were refreshed on DIV3, and cells were processed for analysis on DIV4. For the synaptogenesis assay, treatment media were refreshed on DIV3 and DIV6, and cells were processed for analysis on DIV8. Processing for both the neurite outgrowth and the synaptogenesis assays was performed as follows: media were removed, and cells were fixed with 100% methanol for 20 min at RT before methanol was aspirated and each well was washed twice with Dulbecco’s phosphate-buffered saline (DPBS). Cells were permeabilized using 0.02% […] (ThermoFisher, Waltham, Massachusetts) in DPBS for 2 min at RT without shaking, and plates were blocked with 5% bovine serum albumin (BSA) in DPBS for 1 h at RT. […] Ten images of single cells from a total of 2 assays were analyzed using NeuroJ plug-in for ImageJ to assess neurite outgrowth, as neurite length and the number of branches per neuron were counted for each cell. For the synaptogenesis assay, synaptic count (number of synapses) and synaptic strength (relative abundance of presynaptic vesicles per synapse as measured by synaptobrevin-II fluorescence intensity) were quantified for each cell. Data were assessed for normality (Shapiro–Wilk) and homoscedasticity (Brown-Forsythe). […]

[3] = Fosgonimeton CNS distribution in rats; type: in vivo, rat; conditions: 12 mg/kg fosgonimeton SC
Protocol: Three male Sprague Dawley rats per time point were given 12 mg/kg fosgonimeton via SC injection. At 0.16, 0.5, and 1 h after dosing, animals were humanely killed and perfused with chilled saline. Brains were collected and dissected into the following brain regions: whole brain, striatum, olfactory bulb, hippocampus, cerebellum, cerebral cortex, and brainstem. Brain regions were homogenized and the exposures of fosgonimeton and fosgo-AM were determined by LC/MS/MS.

## CCCCCC(=O)N[C@@H](Cc1ccc(O)cc1)C(=O)N[C@H](C(=O)NCCCCCC(N)=O)[C@@H](C)CC [fosgo-AM] (Hexanoyl-Tyr-Ile-[Ahx]-NH2)
[1]; versus H2O2 (1 µM)
  percentage of recovery of cell viability: 144%
[1]; versus LPS (1 µM)
  percentage of recovery of cell viability: 93%
[1]; versus MPP+ (500 µM)
  percentage of recovery of cell viability: 85%
[1]; versus glutamate (25 µM)
  percentage of recovery of cell viability: 61%
[1]; all tested concentrations (1 nM–1 µM), against all insults (MPP+, glutamate, LPS, H2O2)
  cell viability: Significant improvement in cell viability
[2]; 1 nM fosgo-AM + 5 ng/mL HGF
  number of synapses (synaptic count): significantly increased the number of synapses
  synaptobrevin-II immunofluorescence intensity (synaptic strength): significantly enhanced immunofluorescence intensity of synaptobrevin-II
[2]; 1 nM
  synaptobrevin-II immunofluorescence intensity (synaptic strength): significantly enhanced immunofluorescence intensity of synaptobrevin-II
[3]; all regions
  time to maximum concentration (Tmax) in brain regions: 10 min
[3]; brainstem
  Cmax, ng/g ± SEM: 58.3 ± 11.3 ng/g
  Tmax: 9.6 min
[3]; cerebellum
  Cmax, ng/g ± SEM: 23.8 ± 4.1 ng/g
  Tmax: 9.6 min
[3]; cerebral cortex
  Cmax, ng/g ± SEM: 36.5 ± 12.0 ng/g
  Tmax: 9.6 min
[3]; hippocampus
  Cmax, ng/g ± SEM: 49.8 ± 30.5 ng/g
  Tmax: 9.6 min
[3]; olfactory bulb
  Cmax, ng/g ± SEM: 43.7 ± 7.3 ng/g
  Tmax: 9.6 min
[3]; striatum
  Cmax, ng/g ± SEM: 24.1 ± 12.8 ng/g
  Tmax: 9.6 min
[3]; whole brain
  Cmax, ng/g ± SEM: 31.9 ± 23.8 ng/g
  Tmax: 9.6 min
